Measurements published in US8574563B2 (Bristol-Myers Squibb Company, priority 2006, dated 2013).
Where two headings read alike, the source gives them in different places.

Test system: HCV 1b-377-neo replicon cells
Experiment: HCV replicon assay, HCV 1b-377-neo replicon cells (1b FRET)
Type: cell-based, Hepatitis C virus genotype 1b
Details: HCV 1b-377-neo replicon cells, HCV 1b genotype, read-out: EC50 range against HCV 1b (Table 2, Range)
How it was run: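 FRET-based replicon assay in HCV 1b-377-neo cells, including a comparison line carrying the NS5A Y2065H mutation that confers resistance to a reference compound.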

Row | SMILES | EC50 (Hepatitis C virus) | EC50
1 | CCCN(CCC)[C@H](C)C(=O)N1CCC[C@H]1c1ncc(-c2ccc(-c3ccc(-c4cnc([C@@H]5CCCN5C(=O)[C@@H](c5ccccc5)N(CC)CC)[nH]4)cc3)cc2)[nH]1 [Example M46, N-((1R)-2-((2S)-2-(5-(4′-(2-((2S)-1-((2R)-2-(diethylamino)-2-phenylacetyl)-2-pyrrolidinyl)-1H-imidazol-5-yl)-4-biphenylyl)-1H-imidazol-2-yl)-1-pyrrolidinyl)-1-methyl-2-oxoethyl)-N-propyl-1-propanamine] | 1 to 99 nM | 
2 | CCN(CC)[C@@H](C(=O)N1CCC[C@H]1c1ncc(-c2ccc(-c3ccc(-c4cnc([C@@H]5CCCN5C(=O)[C@H](NC(=O)OC)c5ccccc5)[nH]4)cc3)cc2)[nH]1)c1ccccc1 [Example M47, methyl ((1R)-2-((2S)-2-(5-(4′-(2-((2S)-1-((2R)-2-(diethylamino)-2-phenylacetyl)-2-pyrrolidinyl)-1H-imidazol-5-yl)-4-biphenylyl)-1H-imidazol-2-yl)-1-pyrrolidinyl)-2-oxo-1-phenylethyl)carbamate] | 1 to 99 nM | 
3 | CCN(CC)[C@@H](C(=O)N1CCC[C@H]1c1ncc(-c2ccc(-c3ccc(-c4cnc([C@@H]5CCCN5C(=O)[C@@H](c5ccccc5)N5CCOCC5)[nH]4)cc3)cc2)[nH]1)c1ccccc1 [Example M48, (1R)-N,N-diethyl-2-((2S)-2-(5-(4′-(2-((2S)-1-((2R)-2-(4-morpholinyl)-2-phenylacetyl)-2-pyrrolidinyl)-1H-imidazol-5-yl)-4-biphenylyl)-1H-imidazol-2-yl)-1-pyrrolidinyl)-2-oxo-1-phenylethanamine] | 1 to 99 nM | 
4 | CCN(CC)[C@@H](C(=O)N1CCC[C@H]1c1ncc(-c2ccc(-c3ccc(-c4cnc([C@@H]5CCCN5C(=O)[C@H](C)NC(=O)OC)[nH]4)cc3)cc2)[nH]1)c1ccccc1 [Example M49, methyl ((1S)-2-((2S)-2-(5-(4′-(2-((2S)-1-((2R)-2-(diethylamino)-2-phenylacetyl)-2-pyrrolidinyl)-1H-imidazol-5-yl)-4-biphenylyl)-1H-imidazol-2-yl)-1-pyrrolidinyl)-1-methyl-2-oxoethyl)carbamate] | 1 to 99 nM | 
5 | CCN(CC)[C@@H](C(=O)N1CCC[C@H]1c1ncc(-c2ccc(-c3ccc(-c4cnc([C@@H]5CCCN5C(=O)CNC(=O)OC)[nH]4)cc3)cc2)[nH]1)c1ccccc1 [Example M50, methyl (2-((2S)-2-(5-(4′-(2-((2S)-1-((2R)-2-(diethylamino)-2-phenylacetyl)-2-pyrrolidinyl)-1H-imidazol-5-yl)-4-biphenylyl)-1H-imidazol-2-yl)-1-pyrrolidinyl)-2-oxoethyl)carbamate] | 1 to 99 nM | 
6 | CCN(CC)[C@@H](C(=O)N1CCC[C@H]1c1ncc(-c2ccc(-c3ccc(-c4cnc([C@@H]5CCCN5C(=O)N5CCOCC5)[nH]4)cc3)cc2)[nH]1)c1ccccc1 [Example M51, (1R)-N,N-diethyl-2-((2S)-2-(5-(4′-(2-((2S)-1-(4-morpholinylcarbonyl)-2-pyrrolidinyl)-1H-imidazol-5-yl)-4-biphenylyl)-1H-imidazol-2-yl)-1-pyrrolidinyl)-2-oxo-1-phenylethanamine] | 1 to 99 nM | 
7 | CCN(CC)[C@@H](C(=O)N1CCC[C@H]1c1ncc(-c2ccc(-c3ccc(-c4cnc([C@@H]5CCCN5C(=O)[C@@H](c5ccccc5)N(C)C)[nH]4)cc3)cc2)[nH]1)c1ccccc1 [Example M52, (1R)-2-((2S)-2-(5-(4′-(2-((2S)-1-((2R)-2-(diethylamino)-2-phenylacetyl)-2-pyrrolidinyl)-1H-imidazol-5-yl)-4-biphenylyl)-1H-imidazol-2-yl)-1-pyrrolidinyl)-N,N-dimethyl-2-oxo-1-phenylethanamine] | 1 to 99 nM | 
8 | CCN(CC)[C@@H](C(=O)N1CCC[C@H]1c1ncc(-c2ccc(-c3ccc(-c4cnc([C@@H]5CCCN5C(=O)[C@@H](C)NC(=O)OC)[nH]4)cc3)cc2)[nH]1)c1ccccc1 [Example M53, methyl ((1R)-2-((2S)-2-(5-(4′-(2-((2S)-1-((2R)-2-(diethylamino)-2-phenylacetyl)-2-pyrrolidinyl)-1H-imidazol-5-yl)-4-biphenylyl)-1H-imidazol-2-yl)-1-pyrrolidinyl)-1-methyl-2-oxoethyl)carbamate] | 1 to 99 nM | 
9 | CC[C@@H](NC(=O)OC)C(=O)N1CCC[C@H]1c1ncc(-c2ccc(-c3ccc(-c4cnc([C@@H]5CCCN5C(=O)[C@@H](c5ccccc5)N(CC)CC)[nH]4)cc3)cc2)[nH]1 [Example M54, methyl ((1R)-1-(((2S)-2-(5-(4′-(2-((2S)-1-((2R)-2-(diethylamino)-2-phenylacetyl)-2-pyrrolidinyl)-1H-imidazol-5-yl)-4-biphenylyl)-1H-imidazol-2-yl)-1 pyrrolidinyl)carbonyl)propyl) carbamate] |  | 1 to 99 nM
10 | CC[C@H](NC(=O)OC)C(=O)N1CCC[C@H]1c1ncc(-c2ccc(-c3ccc(-c4cnc([C@@H]5CCCN5C(=O)[C@@H](c5ccccc5)N(CC)CC)[nH]4)cc3)cc2)[nH]1 [Example M55, methyl ((1S)-1-(((2S)-2-(5-(4′-(2-((2S)-1-((2R)-2-(diethylamino)-2-phenylacetyl)-2-pyrrolidinyl)-1H-imidazol-5-yl)-4-biphenylyl)-1H-imidazol-2-yl)-1-pyrrolidinyl)carbonyl)propyl)carbamate] | 1 to 99 nM | 
11 | CCN(CC)[C@@H](C(=O)N1CCC[C@H]1c1ncc(-c2ccc(-c3ccc(-c4cnc([C@@H]5CCCN5C(=O)[C@H](NC(=O)OC)C5CC5)[nH]4)cc3)cc2)[nH]1)c1ccccc1 [Example M56, methyl ((1R)-1-cyclopropyl-2-((2S)-2-(5-(4′-(2-((2S)-1-((2R)-2-(diethylamino)-2-phenylacetyl)-2-pyrrolidinyl)-1H-imidazol-5-yl)-4-biphenylyl)-1H-imidazol-2-yl)-1-pyrrolidinyl)-2-oxoethyl)carbamate] | 1 to 99 nM | 
12 | CCN(CC)[C@@H](C(=O)N1CCC[C@H]1c1ncc(-c2ccc(-c3ccc(-c4cnc([C@@H]5CCCN5C(=O)[C@@H](NC(=O)OC)C5CC5)[nH]4)cc3)cc2)[nH]1)c1ccccc1 [Example M57, methyl ((1S)-1-cyclopropyl-2-((2S)-2-(5-(4′-(2-((2S)-1-((2R)-2-(diethylamino)-2-phenylacetyl)-2-pyrrolidinyl)-1H-imidazol-5-yl)-4-biphenylyl)-1H-imidazol-2-yl)-1-pyrrolidinyl)-2-oxoethyl)carbamate] | 1 to 99 nM | 
13 | CCN(CC)[C@@H](C(=O)N1CCC[C@H]1c1ncc(-c2ccc(-c3ccc(-c4cnc([C@@H]5CCCN5C(=O)[C@@H](NC(=O)OC)C(C)C)[nH]4)cc3)cc2)[nH]1)c1ccccc1 [Example M58, methyl ((1S)-1-(((2S)-2-(5-(4′-(2-((2S)-1-((2R)-2-(diethylamino)-2-phenylacetyl)-2-pyrrolidinyl)-1H-imidazol-5-yl)-4-biphenylyl)-1H-imidazol-2-yl)-1-pyrrolidinyl)carbonyl)-2-methylpropyl)carbamate] | 1 to 99 nM | 
14 | CCN(CC)[C@@H](C(=O)N1CCC[C@H]1c1ncc(-c2ccc(-c3ccc(-c4cnc([C@@H]5CCCN5C(=O)[C@@H](NC(=O)OC)C(C)(C)C)[nH]4)cc3)cc2)[nH]1)c1ccccc1 [Example M59, methyl ((1S)-1-(((2S)-2-(5-(4′-(2-((2S)-1-((2R)-2-(diethylamino)-2-phenylacetyl)-2-pyrrolidinyl)-1H-imidazol-5-yl)-4-biphenylyl)-1H-imidazol-2-yl)-1-pyrrolidinyl)carbonyl)-2,2-dimethylpropyl)carbamate] | 1 to 99 nM | 
15 | C=CC[C@H](NC(=O)OC)C(=O)N1CCC[C@H]1c1ncc(-c2ccc(-c3ccc(-c4cnc([C@@H]5CCCN5C(=O)[C@@H](c5ccccc5)N(CC)CC)[nH]4)cc3)cc2)[nH]1 [Example M60, methyl ((1S)-1-(((2S)-2-(5-(4′-(2-((2S)-1-((2R)-2-(diethylamino)-2-phenylacetyl)-2-pyrrolidinyl)-1H-imidazol-5-yl)-4-biphenylyl)-1H-imidazol-2-yl)-1-pyrrolidinyl)carbonyl)-3-buten-1-yl)carbamate] | 1 to 99 nM | 
16 | CCN(CC)[C@@H](C(=O)N1CCC[C@H]1c1ncc(-c2ccc(-c3ccc(-c4cnc([C@@H]5CCCN5C(=O)[C@H](COC)NC(=O)OC)[nH]4)cc3)cc2)[nH]1)c1ccccc1 [Example M61, methyl ((1S)-2-((2S)-2-(5-(4′-(2-((2S)-1-((2R)-2-(diethylamino)-2-phenylacetyl)-2-pyrrolidinyl)-1H-imidazol-5-yl)-4-biphenylyl)-1H-imidazol-2-yl)-1-pyrrolidinyl)-1-(methoxymethyl)-2-oxoethyl)carbamate] | 1 to 99 nM | 
17 | CCC[C@H](NC(=O)OC)C(=O)N1CCC[C@H]1c1ncc(-c2ccc(-c3ccc(-c4cnc([C@@H]5CCCN5C(=O)[C@@H](c5ccccc5)N(CC)CC)[nH]4)cc3)cc2)[nH]1 [Example M62, methyl ((1S)-1-(((2S)-2-(5-(4′-(2-((2S)-1-((2R)-2-(diethylamino)-2-phenylacetyl)-2-pyrrolidinyl)-1H-imidazol-5-yl)-4-biphenylyl)-1H-imidazol-2-yl)-1-pyrrolidinyl)carbonyl)butyl)carbamate] | 1 to 99 nM | 
18 | CCN(CC)[C@H](C)C(=O)N1CCC[C@H]1c1ncc(-c2ccc(-c3ccc(-c4cnc([C@@H]5CCCN5C(=O)[C@H](NC(=O)OC)c5ccccc5)[nH]4)cc3)cc2)[nH]1 [Example M63, methyl ((1R)-2-((2S)-2-(5-(4′-(2-((2S)-1-(N,N-diethyl-D-alanyl)-2-pyrrolidinyl)-1H-imidazol-5-yl)-4-biphenylyl)-1H-imidazol-2-yl)-1-pyrrolidinyl)-2-oxo-1-phenylethyl)carbamate] | 1 to 99 nM | 
19 | CCCN(CCC)[C@H](C)C(=O)N1CCC[C@H]1c1ncc(-c2ccc(-c3ccc(-c4cnc([C@@H]5CCCN5C(=O)[C@H](NC(=O)OC)c5ccccc5)[nH]4)cc3)cc2)[nH]1 [Example M64, methyl ((1R)-2-((2S)-2-(5-(4′-(2-((2S)-1-(N,N-dipropyl-D-alanyl)-2-pyrrolidinyl)-1H-imidazol-5-yl)-4-biphenylyl)-1H-imidazol-2-yl)-1-pyrrolidinyl)-2-oxo-1-phenylethyl)carbamate] | 1 to 99 nM | 
